Data from patent publication US9284333B2, “Fused pyrroledicarboxamides and their use as pharmaceuticals” (SANOFI, priority 2012, dated 2016).

Target: Human TASK-1 channels (Homo sapiens (Human), UniProt O14649)
Assay: Determination of the activity on the TASK-1 channel in Xenopus oocytes (two-microelectrode voltage clamp)
Assay type: cell-based
Settings: compound concentration 5 μM
In short: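 Current during 500 ms pulses to 40 mV from a −90 mV hold was recorded in oocytes expressing human TASK-1 for two days after cRNA injection. Compounds were added cumulatively to the ND96 bath (pH 7.4, room temperature). IC50 came from dose-response fitting of inhibition relative to pre-compound current.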

Chain of Human TASK-1 channels (O14649 whole entry): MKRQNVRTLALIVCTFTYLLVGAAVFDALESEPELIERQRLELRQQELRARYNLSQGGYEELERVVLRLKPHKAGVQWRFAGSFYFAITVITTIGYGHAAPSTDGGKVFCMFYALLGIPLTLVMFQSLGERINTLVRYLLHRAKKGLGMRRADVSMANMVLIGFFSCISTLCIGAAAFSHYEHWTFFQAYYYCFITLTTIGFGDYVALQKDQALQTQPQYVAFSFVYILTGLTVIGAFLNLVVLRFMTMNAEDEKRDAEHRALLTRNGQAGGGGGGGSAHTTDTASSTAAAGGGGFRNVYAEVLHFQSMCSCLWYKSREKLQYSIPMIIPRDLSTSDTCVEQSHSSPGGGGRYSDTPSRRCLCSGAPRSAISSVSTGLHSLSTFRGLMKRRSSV

inhibition at 5 µM | Compound
92% | CC[C@@H](NC(=O)c1cc(C(=O)N2CCC[C@H]2c2ccccc2)n2c1CCCC2)c1ccccc1 [16mn, 3-((S)-2-Phenyl-pyrrolidine-1-carbonyl)-5,6,7,8-tetrahydro-indolizine-1-carboxylic acid ((R)-1-phenyl-propyl)-amide]
53% | CC[C@@H](NC(=O)c1cc(C(=O)N2CCC[C@@H]2C)n2c1COCC2)c1cncc(C(F)(F)F)c1 [16bk, 6-((S)-2-Methyl-pyrrolidine-1-carbonyl)-3,4-dihydro-1H-pyrrolo[2,1-c][1,4]oxazine-8-carboxylic acid [(R)-1-(5-trifluoromethyl-pyridin-3-yl)-propyl]-amide]

Same assay, conditions: human TASK-1 expressed in Xenopus oocytes, room temperature; read-out: IC50 value for TASK-1 inhibition

IC50 | Compound
900 nM | C[C@H]1CCCN1C(=O)c1cc(C(=O)N[C@@H]2CCc3nc(C(F)(F)F)ccc32)c2n1CCOC2 (racemic) [16cv, 6-((S)-2-Methyl-pyrrolidine-1-carbonyl)-3,4-dihydro-1H-pyrrolo[2,1-c][1,4]oxazine-8-carboxylic acid ((R)-2-trifluoromethyl-6,7-dihydro-5H-[1]pyrindin-5-yl)-amide]
780 nM | CC[C@@H](NC(=O)c1cc(C(=O)N[C@H](CC)c2cccc(S(C)(=O)=O)c2)n2c1COCC2)c1ccccc1 [16jh, 3,4-Dihydro-1H-pyrrolo[2,1-c][1,4]oxazine-6,8-dicarboxylic acid 6-{[(R)-1-(3-methanesulfonyl-phenyl)-propyl]-amide}-8-[((R)-1-phenyl-propyl)-amide]]
1910 nM | O=C(NC(c1ccc(F)cc1)C(F)(F)F)c1cc(C(=O)N2CCCC2)n2c1COCC2 (stereo not drawn) [16df, 6-(Pyrrolidine-1-carbonyl)-3,4-dihydro-1H-pyrrolo[2,1-c][1,4]oxazine-8-carboxylic acid [2,2,2-trifluoro-1-(4-fluoro-phenyl)-ethyl]-amide]
4100 nM | CC[C@H](NC(=O)c1cc(C(=O)N2CCC[C@@H]2C)n2c1COCC2)c1ccc(C(F)(F)F)nc1 [16bj, 6-((S)-2-Methyl-pyrrolidine-1-carbonyl)-3,4-dihydro-1H-pyrrolo[2,1-c][1,4]oxazine-8-carboxylic acid [(S)-1-(6-trifluoromethyl-pyridin-3-yl)-propyl]-amide]
93 nM | CC[C@@H](NC(=O)c1cc(C(=O)NCC2CCCCC2)n2c1CCCC2)c1ccccc1 [16mp, 5,6,7,8-Tetrahydro-indolizine-1,3-dicarboxylic acid 3-cyclohexylmethyl-amide 1-[((R)-1-phenyl-propyl)-amide]]
1400 nM | CC[C@@H](NC(=O)c1cc(C(=O)N2CCC[C@@H]2C)n2c1COCC2)c1ccc(OC)nc1 [16ai, 6-((S)-2-Methyl-pyrrolidine-1-carbonyl)-3,4-dihydro-1H-pyrrolo[2,1-c][1,4]oxazine-8-carboxylic acid [(R)-1-(6-methoxy-pyridin-3-yl)-propyl]-amide]
650 nM | CC[C@@H](NC(=O)c1cc(C(=O)NCc2ncn[nH]2)n2c1COCC2)c1ccccc1 [16ii, 3,4-Dihydro-1H-pyrrolo[2,1-c][1,4]oxazine-6,8-dicarboxylic acid 8-[((R)-1-phenyl-propyl)-amide] 6-[(2H-[1,2,4]triazol-3-ylmethyl)-amide]]
15 nM | CC[C@@H](NC(=O)c1cc(C(=O)N2CCC[C@@H]2C)n2c1COCC2)c1ccc(F)c(Cl)c1 [16cg, 6-((S)-2-Methyl-pyrrolidine-1-carbonyl)-3,4-dihydro-1H-pyrrolo[2,1-c][1,4]oxazine-8-carboxylic acid [(R)-1-(3-chloro-4-fluoro-phenyl)-propyl]-amide]
1000 nM | C[C@H]1CCCN1C(=O)c1cc(C(=O)NCc2c(F)cccc2F)c2n1CCOC2 [16y, 6-((S)-2-Methyl-pyrrolidine-1-carbonyl)-3,4-dihydro-1H-pyrrolo[2,1-c][1,4]oxazine-8-carboxylic acid 2,6-difluoro-benzylamide]
210 nM | CC[C@@H](NC(=O)c1cc(C(=O)N2CCC[C@@H]2C#N)n2c1COCC2)c1ccccc1 [16fm, 6-((R)-2-Cyano-pyrrolidine-1-carbonyl)-3,4-dihydro-1H-pyrrolo[2,1-c][1,4]oxazine-8-carboxylic acid ((R)-1-phenyl-propyl)-amide]
360 nM | CC[C@@H](NC(=O)c1cc(C(=O)N[C@H](CC)c2cccc(O)c2)n2c1COCC2)c1ccccc1 [16ix, 3,4-Dihydro-1H-pyrrolo[2,1-c][1,4]oxazine-6,8-dicarboxylic acid 6-{[(R)-1-(3-hydroxy-phenyl)-propyl]-amide} 8-[((R)-1-phenyl-propyl)-amide]]
200 nM | CC[C@@H](NC(=O)c1cc(C(=O)N2CCCCCC2)n2c1CCCC2)c1ccccc1 [16mr, 3-(Azepane-1-carbonyl)-5,6,7,8-tetrahydro-indolizine-1-carboxylic acid ((R)-1-phenyl-propyl)-amide]
400 nM | CC[C@@H](NC(=O)c1cc(C(=O)N2CCC[C@@H]2C)n2c1COCC2)c1ccc(OC)cc1 [16at, 6-((S)-2-Methyl-pyrrolidine-1-carbonyl)-3,4-dihydro-1H-pyrrolo[2,1-c][1,4]oxazine-8-carboxylic acid [(R)-1-(4-methoxy-phenyl)-propyl]-amide]
1900 nM | CC[C@@H](NC(=O)c1cc(C(=O)N2CCC[C@@H]2c2cnccn2)n2c1COCC2)c1ccccc1 [16fp, 6-((R)-2-Pyrazin-2-yl-pyrrolidine-1-carbonyl)-3,4-dihydro-1H-pyrrolo[2,1-c][1,4]oxazine-8-carboxylic acid ((R)-1-phenyl-propyl)-amide]
670 nM | CC[C@@H](NC(=O)c1cc(C(=O)NCc2ccc(F)cc2F)c2n1CCOC2)c1cccc(OC)n1 [16nt, 3,4-Dihydro-1H-pyrrolo[2,1-c][1,4]oxazine-6,8-dicarboxylic acid 8-(2,4-difluoro-benzylamide) 6-{[(R)-1-(6-methoxy-pyridin-2-yl)-propyl]-amide}]
900 nM | CC[C@@H](NC(=O)c1cc(C(=O)NCc2cnccn2)n2c1C(C)OCC2)c1ccccc1 (stereo partly drawn) [16li, 1-Methyl-3,4-dihydro-1H-pyrrolo[2,1-c][1,4]oxazine-6,8-dicarboxylic acid 8-[((R)-1-phenyl-propyl)-amide] 6-[(pyrazin-2-ylmethyl)-amide]]
250 nM | CC[C@@H](NC(=O)c1cc(C(=O)N[C@H](CC)c2ccccc2)n2c1COCC2)c1ccc(OC)nc1 [16jo, 3,4-Dihydro-1H-pyrrolo[2,1-c][1,4]oxazine-6,8-dicarboxylic acid 8-{[(R)-1-(6-methoxy-pyridin-3-yl)-propyl]-amide} 6-[((R)-1-phenyl-propyl)-amide]]
68 nM | CC[C@@H](NC(=O)c1cc(C(=O)N2CCC[C@@H]2C)n2c1COCC2)c1ccc(C(F)(F)F)cc1 [16f, 6-((S)-2-Methyl-pyrrolidine-1-carbonyl)-3,4-dihydro-1H-pyrrolo[2,1-c][1,4]oxazine-8-carboxylic acid [(R)-1-(4-trifluoromethyl-phenyl)-propyl]-amide]
1100 nM | CC[C@@H](NC(=O)c1cc(C(=O)N2CCN(c3ccccn3)CC2)n2c1COCC2)c1ccccc1 [16fq, 6-(4-Pyridin-2-yl-piperazine-1-carbonyl)-3,4-dihydro-1H-pyrrolo[2,1-c][1,4]oxazine-8-carboxylic acid ((R)-1-phenyl-propyl)-amide]
80 nM | CC[C@@H](NC(=O)c1cc(C(=O)NCC2CC2)n2c1COCC2)c1ccccc1Cl [16ld, 3,4-Dihydro-1H-pyrrolo[2,1-c][1,4]oxazine-6,8-dicarboxylic acid 8-{[(R)-1-(2-chloro-phenyl)-propyl]-amide} 6-cyclopropylmethyl-amide]
340 nM | CC[C@@H](NC(=O)c1cc(C(=O)Nc2nc(C)c(C)s2)c2n1CCCC2)c1ccccc1 [16me, 5,6,7,8-Tetrahydro-indolizine-1,3-dicarboxylic acid 3-[((R)-1-phenyl-propyl)-amide] 1-[(4,5-dimethyl-thiazol-2-yl)-amide]]
260 nM | CC[C@@H](NC(=O)c1cc(C(=O)N2CCC[C@H]2C)n2c1COCC2)c1ccccc1 [16ej, 6-((R)-2-Methyl-pyrrolidine-1-carbonyl)-3,4-dihydro-1H-pyrrolo[2,1-c][1,4]oxazine-8-carboxylic acid ((R)-1-phenyl-propyl)-amide]
670 nM | CC[C@@H](NC(=O)c1cc(C(=O)N2CCN(c3ccccn3)C[C@@H]2C)n2c1COCC2)c1ccccc1 [16fs, 6-((S)-2-Methyl-4-pyridin-2-yl-piperazine-1-carbonyl)-3,4-dihydro-1H-pyrrolo[2,1-c][1,4]oxazine-8-carboxylic acid ((R)-1-phenyl-propyl)-amide]
290 nM | CC[C@@H](NC(=O)c1cc(C(=O)N2CCC[C@@H]2c2ccccn2)n2c1COCC2)c1ccccc1 [16fk, 6-((R)-2-Pyridin-2-yl-pyrrolidine-1-carbonyl)-3,4-dihydro-1H-pyrrolo[2,1-c][1,4]oxazine-8-carboxylic acid ((R)-1-phenyl-propyl)-amide]
180 nM | CC[C@@H](NC(=O)c1cc(C(=O)N2CCCC2COC(F)(F)F)n2c1COCC2)c1ccccc1 (stereo partly drawn) [16en, 6-(2-Trifluoromethoxymethyl-pyrrolidine-1-carbonyl)-3,4-dihydro-1H-pyrrolo[2,1-c][1,4]oxazine-8-carboxylic acid ((R)-1-phenyl-propyl)-amide]
940 nM | CC[C@@H](NC(=O)c1cc(C(=O)Nc2nc(C)c(C)s2)c2n1CCOC2)c1ccccc1 [16ju, 3,4-Dihydro-1H-pyrrolo[2,1-c][1,4]oxazine-6,8-dicarboxylic acid 8-[(4,5-dimethyl-thiazol-2-yl)-amide] 6-[((R)-1-phenyl-propyl)-amide]]
260 nM | CC[C@@H](NC(=O)c1cc(C(=O)NC(C)c2cnccn2)n2c1COCC2)c1ccccc1 (single isomer, unassigned) [16ie]
820 nM | CC[C@@H](NC(=O)c1cc(C(=O)N2[C@@H](COC)CC[C@@H]2COC)n2c1COCC2)c1ccccc1 [16ep, 6-((2R,5R)-2,5-Bis-methoxymethyl-pyrrolidine-1-carbonyl)-3,4-dihydro-1H-pyrrolo[2,1-c][1,4]oxazine-8-carboxylic acid ((R)-1-phenyl-propyl)-amide]
